# Test results from patent publication US20220047563A1, “COMBINATION THERAPY FOR THE TREATMENT OF ESTROGEN-RECEPTOR POSITIVE BREAST CANCER” (ZENITH EPIGENETICS LTD., priority 2018, published 2022).
# How the values were obtained:
# Format in all cases: cell-based
# WT-MCF7 cells [1] = assay: Cell viability (CellTiter Fluor), combination of Compound I with abemaciclib, WT-MCF7; details: 7 days, average of CI at ED50, 75, 90 (Chou-Talalay)
# Method: (§1) MCF7, Palbo-R-MCF7, ZR-75-1, Abema-R MCF7, and Palbo-R ZR-75-1 cells were plated at a density of 7,500 cells per well in 96 well flat bottom plates in 1640-RPMI media containing 10% FBS and penicillin/streptomycin and incubated for 24 hours at 37° C., 5% CO2. Media was replaced with 1640-RPM I containing 10% FBS with constant ratios of either Compound I or abemaciclib as single agents, or a combination of both drugs at four different concentrations (2× IC50, 1× IC50, 0.5× IC50, 0.25× IC50), and incubated at 37° C., 5% CO2 for 7 days. The cells were retreated as described above on the 3rd or 4th day. Triplicate wells were used for each concentration and wells containing only media with 0.1% DMSO were used as a control. […] Fluorescence at 380-400 nm Excitation/505 nm Emission was read in a fluorometer and the percentage of cell titer relative to DMSO-treated cells was calculated after correcting for background by subtracting the blank well's signal. IC50 values for single agents were calculated using the GraphPad Prism software. Quantification of synergy was done by calculating combination indices (CI) using the CalcuSyn software (Biosoft) based on the Chou-Talalay algorithm (Chou and Talalay, 1984), and averaging the CI values for the effective doses (ED) 50, 75, and 90.
# Palbo-R-MCF7 cells = assay: Cell viability (CellTiter Fluor), combination of Compound I with abemaciclib, Palbo-R-MCF7; details: 7 days, average of CI at ED50, 75, 90 (Chou-Talalay)
# Method: as §1
# ZR-75-1 cells = assay: Cell viability (CellTiter Fluor), combination of Compound I with abemaciclib, ZR-75-1; details: 7 days, average of CI at ED50, 75, 90 (Chou-Talalay)
# Method: as §1
# Palbo-R ZR-75-1 cells = assay: Cell viability (CellTiter Fluor), combination of Compound I with abemaciclib, Palbo-R ZR-75-1; details: 7 days, average of CI at ED50, 75, 90 (Chou-Talalay)
# Method: as §1
# Abema-R MCF7 cells = assay: Cell viability (CellTiter Fluor), combination of Compound I with abemaciclib, Abema-R MCF7; details: 7 days, average of CI at ED50, 75, 90 (Chou-Talalay)
# Method: as §1
# WT-MCF7 cells [2] = assay: Cell viability (CellTiter Fluor), combination of Compound I with fulvestrant, MCF7; details: 7 days
# Method: MCF7 cells were plated at a density of 7,500 cells per well in 96 well flat bottom plates in phenol-red free 1640-RPMI media containing 10% charcoal-stripped FBS and penicillin/streptomycin and incubated for 24 hours at 37° C., 5% CO2. Media was replaced with phenol-red free 1640-RPM I media containing 10% charcoal-stripped FBS and penicillin/streptomycin treated with constant ratios of either Compound I or fulvestrant as single agents, or a combination of both drugs at four different concentrations (2× IC50, 1× IC50, 0.5× IC50, 0.25× IC50), and incubated at 37° C., 5% CO2 for 7 days. The cells were retreated as described above on the 3rd or 4th day. Triplicate wells were used for each concentration and wells containing only media with 0.1% DMSO were used as a control. […] Fluorescence at 380-400 nm Excitation/505 nm Emission was read in a fluorometer and the percentage of cell titer relative to DMSO-treated cells was calculated after correcting for background by subtracting the blank well's signal. IC50 values for single agents were calculated using the GraphPad Prism software. Quantification of synergy was done by calculating combination indices (CI) using the CalcuSyn software (Biosoft) based on the Chou-Talalay algorithm (Chou and Talalay, 1984), and averaging the CI values for the effective doses (ED) 50, 75, and 90.
# [3] = test system: MCF7, Palbo-R-MCF7, ZR-75-1, Abema-R MCF7, and Palbo-R ZR-75-1 cells; assay: Cell viability (CellTiter Fluor), combination of Compound I with abemaciclib, ER+ breast cancer cell line panel; details: 7 days
# Method: as §1
compound,measurement,setting,value
"CNc1nc2ncc(-c3c(C)noc3C)cc2n1Cc1ccccc1 [Compound I, 1-benzyl-6-(3,5-dimethylisoxazol-4-yl)-N-methyl-1H-imidazo[4,5-b]pyridine-2-amine]",CI (combination index),WT-MCF7 cells [1],0.08
same,CI (combination index),Palbo-R-MCF7 cells,0.20
same,CI (combination index),ZR-75-1 cells,0.14
same,CI (combination index),Palbo-R ZR-75-1 cells,0.35
same,CI (combination index),Abema-R MCF7 cells,0.30
same,"inhibition of cell viability, combination versus single agents",WT-MCF7 cells [2]; addition of Compound I to fulvestrant,improved inhibition of cell viability compared to either single agent
same,CI (combination index),"WT-MCF7 cells [2]; combination with fulvestrant, charcoal-stripped FBS, phenol-red free media, average of CI at ED50, 75, 90 (Chou-Talalay)",0.51
same,"inhibition of cell viability, combination versus single agents","[3]; addition of Compound I to abemaciclib, five cell lines",improved inhibition of cell viability compared to either single agent
same,average CI value,"[3]; combination with abemaciclib, depending upon the cell line (five cell lines)",0.08-0.35
